Measured values as given in patent publication US9981964B2 (Agency for Science, Technology and Research, priority 2013, dated 2018).

Tested on: HEK293-STF3A cells
Test: STF3A assay (STF luciferase reporter in Wnt3A-expressing HEK293 cells)
Assay type: cell-based
Conditions: Homo sapiens, 24 h, 1 day of treatment
Source text: HEK293-STF cell line was modified from Human embryonic kidney cell line HEK293 transfected with the STF reporter. HEK293-STF3A cell line was further modified from HEK293-STF cell line to express Wnt3A. This cell line was used to identify compounds that regulate either early or late signaling components of the Wnt pathway. These two cell lines were obtained from David Virshup's laboratory, Duke-NUS. L-Wnt3A (ATCC, #CRL-2647) cell line was used for providing Wnt3A conditioned media. The three cell lines were grown in DMEM with 10% FBS incubated in 37° C. with 5% CO2.
2×10^4 HEK293-STF3A cells in 75 μl culture media were seeded in each well of white 96 well plates (Greiner #655098) and incubated overnight at 37° C. 25 μl serially diluted compound was added to the cells to give final concentration of 50 μM to 1.5 nM. After 1 day of treatment, 100 μl of Steady-Glo Luciferase Assay reagent (#E2520, Promega) was added to each well and incubated for 10 minutes at room temperature. Luminescence was measured using Tecan Safire2 plate reader.

Question: `COc1cc(-c2ccccc2)ccc1NC(=O)CN1CCCC2=C1C(=O)N(C)C2=O` [Compound 81, N-(3-methoxy-[1,1′-biphenyl]-4-yl)-2-(6-methyl-5,7-dioxo-2,3,4,5,6,7-hexahydro-1H-pyrrolo[3,4-b]pyridin-1-yl)acetamide] was tested. Which IC50 did it give?
Answer: > 10000 nM

Question: For `O=C(CN1CCCC2=C1C(=O)N(C1CC1)C2=O)Nc1ncc(-c2cccnc2)cc1F` [Compound 107, 2-(6-cyclopropyl-5,7-dioxo-2,3,4,5,6,7-hexahydro-1H-pyrrolo[3,4-b]pyridin-1-yl)-N-(5-fluoro-[3,3′-bipyridin]-6-yl)acetamide], which IC50 is on record?
Answer: < 1000 nM

Question: `Cc1ccc(-c2cnc(NC(=O)CN3CCCC4=C3C(=O)N(C)C4=O)cn2)cn1` [Compound 35] was tested. Which IC50 did it give?
Answer: < 1000 nM

Question: With `CN1C(=O)C2=C(C1=O)N(CC(=O)Nc1ccc(-c3ccc(C(F)(F)F)nc3)nn1)CCC2` [Compound 45, 2-(6-methyl-5,7-dioxo-2,3,4,5,6,7-hexahydro-1H-pyrrolo[3,4-b]pyridin-1-yl)-N-(6-(6-(trifluoromethyl)pyridin-3-yl)pyridazin-3-yl)acetamide] as the compound, how does the IC50 read?
Answer: < 5000 nM

Question: For `Cc1ccc(-c2ccc(NC(=O)CN3CCCC4=C3C(=O)N(C3CC3)C4=O)cn2)cn1` [Compound 44, 2-(6-cyclopropyl-5,7-dioxo-2,3,4,5,6,7-hexahydro-1H-pyrrolo[3,4-b]pyridin-1-yl)-N-(6′-methyl-[2,3′-bipyridin]-5-yl)acetamide], which IC50 is on record?
Answer: < 100 nM

Question: How did the IC50 turn out when `Cc1ncccc1-c1ccc(NC(=O)CN2CCCC3=C2C(=O)N(C2CC2)C3=O)cn1` [Compound 121, 2-(6-cyclopropyl-5,7-dioxo-2,3,4,5,6,7-hexahydro-1H-pyrrolo[3,4-b]pyridin-1-yl)-N-(2′-methyl-2,3′-bipyridin-5-yl)acetamide] was run?
Answer: < 100 nM

Question: Which IC50 does the source give for `CN1C(=O)C2=C(C1=O)N(CC(=O)Nc1ccc(-c3ccncn3)cc1)CCC2` [Compound 73, 2-(6-methyl-5,7-dioxo-2,3,4,5,6,7-hexahydro-1H-pyrrolo[3,4-b]pyridin-1-yl)-N-(4-(pyrimidin-4-yl)phenyl)acetamide] here?
Answer: > 10000 nM

Question: Which IC50 does the source give for `Cc1cncc(-c2ccc(NC(=O)CN3CCCC4=C3C(=O)N(C)C4=O)nc2)c1` [Compound 148, 2-(6-methyl-5,7-dioxo-2,3,4,5,6,7-hexahydro-1H-pyrrolo[3,4-b]pyridin-1-yl)-N-(5′-methyl-[3,3′-bipyridin]-6-yl)acetamide] here?
Answer: < 100 nM

Question: `Cc1ccnc(-c2ccc(NC(=O)CN3CCCC4=C3C(=O)N(C3CC3)C4=O)nc2)c1` [Compound 150, 2-(6-cyclopropyl-5,7-dioxo-2,3,4,5,6,7-hexahydro-1H-pyrrolo[3,4-b]pyridin-1-yl)-N-(4-methyl-[2,3′-bipyridin]-6′-yl)acetamide] was tested. Which IC50 did it give?
Answer: < 100 nM

Question: `O=C(CN1CCCC2=C1C(=O)N(C1CC1)C2=O)Nc1ccc(-c2cccc(C(F)(F)F)c2)nn1` [Compound 55, 2-(6-cyclopropyl-5,7-dioxo-2,3,4,5,6,7-hexahydro-1H-pyrrolo[3,4-b]pyridin-1-yl)-N-(6-(3-(trifluoromethyl)phenyl)pyridazin-3-yl)acetamide] was tested. Which IC50 did it give?
Answer: < 100 nM

Question: Which IC50 does the source give for `Cc1ccc(-c2ccc(NC(=O)CN3CCCC4=C3C(=O)N(C)C4=O)cn2)cn1` [Compound 24, 2-(6-methyl-5,7-dioxo-2,3,4,5,6,7-hexahydro-1H-pyrrolo[3,4-b]pyridin-1-yl)-N-(6′-methyl-[2,3′-bipyridin]-5-yl)acetamide] here?
Answer: < 100 nM

Question: Which IC50 does the source give for `O=C(CN1CCCC2=C1C(=O)N(C1CC1)C2=O)Nc1ccc(-c2cncnc2)cn1` [Compound 89, 2-(6-cyclopropyl-5,7-dioxo-2,3,4,5,6,7-hexahydro-1H-pyrrolo[3,4-b]pyridin-1-yl)-N-(5-(pyrimidin-5-yl)pyridin-2-yl)acetamide] here?
Answer: < 100 nM

Question: How did the IC50 turn out when `COc1ccc(-c2ccc(NC(=O)CN3CCCC4=C3C(=O)N(C)C4=O)nn2)cc1` [Compound 31, N-(6-(4-methoxyphenyl)pyridazin-3-yl)-2-(6-methyl-5,7-dioxo-2,3,4,5,6,7-hexahydro-1H-pyrrolo[3,4-b]pyridin-1-yl)acetamide] was run?
Answer: < 100 nM

Question: Which IC50 does the source give for `O=C(CN1CCCC2=C1C(=O)N(C1CC1)C2=O)Nc1ccc(-c2cncnc2)nc1` [Compound 102, 2-(6-cyclopropyl-5,7-dioxo-2,3,4,5,6,7-hexahydro-1H-pyrrolo[3,4-b]pyridin-1-yl)-N-(6-(pyrimidin-5-yl)pyridin-3-yl)acetamide] here?
Answer: < 100 nM

Question: `Cc1cc(NC(=O)CN2CCCC3=C2C(=O)N(C2CC2)C3=O)nnc1-c1cccnc1` [Compound 62, 2-(6-cyclopropyl-5,7-dioxo-2,3,4,5,6,7-hexahydro-1H-pyrrolo[3,4-b]pyridin-1-yl)-N-(5-methyl-6-(pyridin-3-yl)pyridazin-3-yl)acetamide] was tested. Which IC50 did it give?
Answer: < 5000 nM

Question: With `CN1C(=O)C2=C(C1=O)N(CC(=O)Nc1ccc(-c3ccccc3)cc1)CCC2` [Compound 70, N-([1,1′-biphenyl]-4-yl)-2-(6-methyl-5,7-dioxo-2,3,4,5,6,7-hexahydro-1H-pyrrolo[3,4-b]pyridin-1-yl)acetamide] as the compound, how does the IC50 read?
Answer: < 100 nM

Question: How did the IC50 turn out when `CN1C(=O)c2c(n(CC(=O)Nc3ccc(-c4cccnc4)nn3)ccc2=O)C1=O` [Compound 64, 2-(6-methyl-4,5,7-trioxo-4,5,6,7-tetrahydro-1H-pyrrolo[3,4-b]pyridin-1-yl)-N-(6-(pyridin-3-yl)pyridazin-3-yl)acetamide] was run?
Answer: < 1000 nM

Question: `C[C@H](C(=O)Nc1ccc(-c2cccnc2)nc1)N1CCCC2=C1C(=O)N(C)C2=O` (single isomer, unassigned) [Compound 117] was tested. Which IC50 did it give?
Answer: < 1000 nM

Question: For `COc1cccc(-c2ccc(NC(=O)CN3CCCC4=C3C(=O)N(C)C4=O)nn2)c1` [Compound 32, N-(6-(3-methoxyphenyl)pyridazin-3-yl)-2-(6-methyl-5,7-dioxo-2,3,4,5,6,7-hexahydro-1H-pyrrolo[3,4-b]pyridin-1-yl)acetamide], which IC50 is on record?
Answer: < 100 nM

Question: For `CN1C(=O)C2=C(C1=O)N(CC(=O)Nc1ccc(-c3cncnc3)cn1)CCC2` [Compound 101, 2-(6-methyl-5,7-dioxo-2,3,4,5,6,7-hexahydro-1H-pyrrolo[3,4-b]pyridin-1-yl)-N-(5-(pyrimidin-5-yl)pyridin-2-yl)acetamide], which IC50 is on record?
Answer: < 100 nM

Question: With `CN1C(=O)C2=C(C1=O)N(CC(=O)Nc1ccc(-c3ccccn3)cc1)CCC2` [Compound 76, 2-(6-methyl-5,7-dioxo-2,3,4,5,6,7-hexahydro-1H-pyrrolo[3,4-b]pyridin-1-yl)-N-(4-(pyridin-2-yl)phenyl)acetamide] as the compound, how does the IC50 read?
Answer: < 100 nM

Question: For `O=C(CN1CCCC2=C1C(=O)N(C1CC1)C2=O)Nc1ccc(-c2ccccn2)cn1` [Compound 16, N-([2,3′-bipyridin]-6′-yl)-2-(6-cyclopropyl-5,7-dioxo-2,3,4,5,6,7-hexahydro-1H-pyrrolo[3,4-b]pyridin-1-yl)acetamide], which IC50 is on record?
Answer: < 100 nM

Question: For `CN1C(=O)C2=C(C1=O)N(CC(=O)Nc1ccc(-c3cncc(F)c3)nn1)CCC2` [Compound 72, N-(6-(5-fluoropyridin-3-yl)pyridazin-3-yl)-2-(6-methyl-5,7-dioxo-2,3,4,5,6,7-hexahydro-1H-pyrrolo[3,4-b]pyridin-1-yl)acetamide], which IC50 is on record?
Answer: < 100 nM

Question: `Cc1cc(NC(=O)CN2CCCC3=C2C(=O)N(C)C3=O)ncc1-c1cccnc1` [Compound 114, 2-(6-methyl-5,7-dioxo-2,3,4,5,6,7-hexahydro-1H-pyrrolo[3,4-b]pyridin-1-yl)-N-(4-methyl-[3,3′-bipyridin]-6-yl)acetamide] was tested. Which IC50 did it give?
Answer: < 5000 nM

Question: Which IC50 does the source give for `C[C@H](C(=O)Nc1ccc(-c2ccccc2)nn1)N1CCCC2=C1C(=O)N(C)C2=O` (single isomer, unassigned) [Compound 95] here?
Answer: > 10000 nM

Question: For `CN1C(=O)c2c(n(CC(=O)Nc3ccc(-c4cccnc4)cn3)ccc2=O)C1=O` [Compound 63, N-(3,3′-bipyridin-6-yl)-2-(6-methyl-4,5,7-trioxo-4,5,6,7-tetrahydro-1H-pyrrolo[3,4-b]pyridin-1-yl)acetamide], which IC50 is on record?
Answer: < 1000 nM

Question: With `CN1C(=O)C2=C(C1=O)N(CC(=O)Nc1ccc(-c3ccc(F)cc3)nc1)CCC2` [Compound 152, N-(6-(4-fluorophenyl)pyridin-3-yl)-2-(6-methyl-5,7-dioxo-2,3,4,5,6,7-hexahydro-1H-pyrrolo[3,4-b]pyridin-1-yl)acetamide] as the compound, how does the IC50 read?
Answer: < 100 nM

Question: Which IC50 does the source give for `Cc1ncccc1-c1ccc(NC(=O)CN2CCCC3=C2C(=O)N(C)C3=O)nn1` [Compound 134, 2-(6-methyl-5,7-dioxo-2,3,4,5,6,7-hexahydro-1H-pyrrolo[3,4-b]pyridin-1-yl)-N-(6-(2-methylpyridin-3-yl)pyridazin-3-yl)acetamide] here?
Answer: < 5000 nM

Question: `O=C(CN1CCCC2=C1C(=O)N(C1CC1)C2=O)Nc1cc(F)c(-c2cccnc2)cn1` [Compound 151, 2-(6-cyclopropyl-5,7-dioxo-2,3,4,5,6,7-hexahydro-1H-pyrrolo[3,4-b]pyridin-1-yl)-N-(4-fluoro-3,3′-bipyridin-6-yl)acetamide] was tested. Which IC50 did it give?
Answer: < 100 nM

Question: Which IC50 does the source give for `CN1C(=O)C2=C(C1=O)N(CC(=O)Nc1ccc(-c3nccs3)cc1)CCC2` [Compound 2, 2-(6-methyl-5,7-dioxo-2,3,4,5,6,7-hexahydro-1H-pyrrolo[3,4-b]pyridin-1-yl)-N-(4-(thiazol-2-yl)phenyl)acetamide] here?
Answer: < 100 nM

Question: How did the IC50 turn out when `CC(C(=O)Nc1ccc(-c2ccccn2)cn1)N1CCCC2=C1C(=O)N(C)C2=O` (centres unmarked) [Compound 17, N-([2,3′-bipyridin]-6′-yl)-2-(6-methyl-5,7-dioxo-2,3,4,5,6,7-hexahydro-1H-pyrrolo[3,4-b]pyridin-1-yl)propanamide] was run?
Answer: < 100 nM

Question: For `CC(C(=O)Nc1cnc(-c2cccnc2)cn1)N1CCCC2=C1C(=O)N(C)C2=O` (centres unmarked) [Compound 23, 2-(6-methyl-5,7-dioxo-2,3,4,5,6,7-hexahydro-1H-pyrrolo[3,4-b]pyridin-1-yl)-N-(5-(pyridin-3-yl)pyrazin-2-yl)propanamide], which IC50 is on record?
Answer: < 100 nM
